Data reported in patent US11459318B2, “Pesticidally active pyrrole derivatives” (Syngenta Participations AG, priority 2017, dated 2022).

Tests used:
Type in all cases: in vivo
[1] = system: Diabrotica balteata (Corn root worm); assay: Diabrotica balteata (Corn root worm), maize sprouts sprayed, L2 larvae mortality; conditions: 96 h, application rate of 200 ppm, L2 larvae on maize sprouts, assessed 4 days after infestation, read-out: control (mortality)
Description: Diabrotica balteata (Corn root worm):
Maize sprouts placed onto an agar layer in 24-well microtiter plates were treated with aqueous test solutions prepared from 10,000 ppm DMSO stock solutions by spraying. After drying, the plates were infested with L2 larvae (6 to 10 per well). The samples were assessed for mortality 4 days after infestation.

[2] = system: Euschistus heros (Neotropical Brown Stink Bug); assay: Euschistus heros (Neotropical Brown Stink Bug): Feeding/contact activity; conditions: 120 h, application rate of 200 ppm, N2 nymphs on soybean leaves, assessed 5 days after infestation, read-out: control (mortality)
Description: Euschistus heros (Neotropical Brown Stink Bug): Feeding/contact activity Soybean leaves on agar in 24-well microtiter plates were sprayed with aqueous test solutions prepared from 10,000 ppm DMSO stock solutions. After drying the leaves were infested with N2 nymphs. The samples were assessed for mortality 5 days after infestation.

[3] = system: Myzus persicae (Green peach aphid); assay: Myzus persicae (Green peach aphid): Feeding/Contact activity; conditions: foliar, 144 h, application rate of 200 ppm, aphid population of mixed ages on sunflower leaf discs, assessed 6 days after infestation, read-out: control (mortality)
Description: Myzus persicae (Green peach aphid): Feeding/Contact activity Sunflower leaf discs were placed onto agar in a 24-well microtiter plate and sprayed with aqueous test solutions prepared from 10,000 ppm DMSO stock solutions. After drying, the leaf discs were infested with an aphid population of mixed ages. The samples were assessed for mortality 6 days after infestation.

[4] = system: Plutella xylostella (Diamond back moth); assay: Plutella xylostella (Diamond back moth): Feeding/contact activity; conditions: 120 h, application rate of 200 ppm, L2 larvae on artificial diet, assessed 5 days after infestation, read-out: control (mortality)
Description: Plutella xylostella (Diamond back moth): Feeding/contact activity
24-well microtiter plates with artificial diet were treated with aqueous test solutions prepared from 10,000 ppm DMSO stock solutions by pipetting. After drying, the plates were infested with L2 larvae (10 to 15 per well). The samples were assessed for mortality 5 days after infestation.

[5] = system: Spodoptera littoralis (Egyptian cotton leaf worm); assay: Spodoptera littoralis (Egyptian cotton leaf worm): Feeding/contact activity; conditions: foliar, 72 h, application rate of 200 ppm, L1 larvae on cotton leaf discs, assessed 3 days after infestation, read-out: control (mortality)
Description: Spodoptera littoralis (Egyptian cotton leaf worm): Feeding/contact activity Cotton leaf discs were placed onto agar in 24-well microtiter plates and sprayed with aqueous test solutions prepared from 10,000 ppm DMSO stock solutions. After drying the leaf discs were infested with five L1 larvae. The samples were assessed for mortality 3 days after infestation.

[6] = system: Tetranychus urticae (Two-spotted spider mite); assay: Tetranychus urticae (Two-spotted spider mite): Feeding/contact activity; conditions: foliar, 192 h, application rate of 200 ppm, mite population of mixed ages (mobile stages) on bean leaf discs, assessed 8 days after infestation, read-out: control (mortality)
Description: Tetranychus urticae (Two-spotted spider mite): Feeding/contact activity
Bean leaf discs on agar in 24-well microtiter plates were sprayed with aqueous test solutions prepared from 10,000 ppm DMSO stock solutions. After drying the leaf discs were infested with a mite population of mixed ages. The samples were assessed for mortality on mixed population (mobile stages) 8 days after infestation.

[7] = system: Thrips tabaci (Onion Thrips); assay: Thrips tabaci (Onion Thrips): Feeding/Contact activity; conditions: foliar, 144 h, application rate of 200 ppm, thrips population of mixed ages on sunflower leaf discs, assessed 6 days after infestation, read-out: control (mortality)
Description: Thrips tabaci (Onion Thrips): Feeding/Contact activity
Sunflower leaf discs were placed on agar in 24-well microtiter plates and sprayed with aqueous test solutions prepared from 10,000 ppm DMSO stock solutions. After drying the leaf discs were infested with a thrips population of mixed ages. The samples were assessed for mortality 6 days after infestation.

Measured: mortality at 200 ppm

Cn1c(C(F)(C(F)(F)F)C(F)(F)F)cc(Br)c1-n1cc(-c2ccc(Cl)c(C(=O)NC3(C#N)CC3)c2)cn1 [Compound 2, 5-[1-[3-bromo-1-methyl-5-[1,2,2,2-tetrafluoro-1-(trifluoromethyl)ethyl]pyrrol-2-yl]pyrazol-4-yl]-2-chloro-N-(1-cyanocyclopropyl)benzamide]
≥ 80%: all assays above

CN(C(=O)c1cc(-c2cnn(-c3c(Br)cc(C(F)(C(F)(F)F)C(F)(F)F)n3C)c2)ccc1Cl)C1CC1 [Compound 4, 5-[1-[3-bromo-1-methyl-5-[1,2,2,2-tetrafluoro-1-(trifluoromethyl)ethyl]pyrrol-2-yl]pyrazol-4-yl]-2-chloro-N-cyclopropyl-N-methyl-benzamide]
not listed: [7]
≥ 80%: all other assays above

Cn1c(C(F)(C(F)(F)F)C(F)(F)F)cc(Br)c1-c1cc(-c2ccc(Cl)c(C(=O)NC3(C#N)CC3)c2)on1 [Compound 6, 5-[3-[3-bromo-1-methyl-5-[1,2,2,2-tetrafluoro-1-(trifluoromethyl)ethyl]pyrrol-2-yl]isoxazol-5-yl]-2-chloro-N-(1-cyanocyclopropyl)benzamide]
not listed: [7]
≥ 80%: all other assays above

Cn1c(C(F)(C(F)(F)F)C(F)(F)F)cc(C(F)(F)F)c1-n1cc(-c2ccc(Cl)c(C(=O)NC3(C#N)CC3)c2)cn1 [Compound 8, 2-chloro-N-(1-cyanocyclopropyl)-5-[1-[1-methyl-5-[1,2,2,2-tetrafluoro-1-(trifluoromethyl)ethyl]-3-(trifluoromethyl)pyrrol-2-yl]pyrazol-4-yl]benzamide]
not listed: [3] | [6]
≥ 80%: all other assays above

Cc1cc(C(F)(C(F)(F)F)C(F)(F)F)n(C)c1-n1cc(-c2ccc(Cl)c(C(=O)NC3(C#N)CC3)c2)cn1 [Compound 11, 2-chloro-N-(1-cyanocyclopropyl)-5-[1-[1,3-dimethyl-5-[1,2,2,2-tetrafluoro-1-(trifluoromethyl)ethyl]pyrrol-2-yl]pyrazol-4-yl]benzamide]
not listed: [3]
≥ 80%: all other assays above

COCn1c(C(F)(C(F)(F)F)C(F)(F)F)cc(Br)c1-n1cc(-c2ccc(Cl)c(C(=O)NC3(C#N)CC3)c2)cn1 [Compound 14, 5-[1-[3-bromo-1-(methoxymethyl)-5-[1,2,2,2-tetrafluoro-1-(trifluoromethyl)ethyl]pyrrol-2-yl]pyrazol-4-yl]-2-chloro-N-(1-cyanocyclopropyl)benzamide]
not listed: [7]
≥ 80%: all other assays above

Cn1c(SC(F)(F)F)c(Br)c(Br)c1-n1cc(-c2ccc(Cl)c(C(=O)NC3(C#N)CC3)c2)cn1 [Compound 16, 2-chloro-N-(1-cyanocyclopropyl)-5-[1-[3,4-dibromo-1-methyl-5-(trifluoromethylsulfanyl)pyrrol-2-yl]pyrazol-4-yl]benzamide]
not listed: [2] | [3]
≥ 80%: all other assays above

Cn1c(C(F)(c2cc(F)cc(F)c2)C(F)(F)F)cc(Br)c1-n1cc(-c2ccc(Cl)c(C(=O)NC3(C#N)CC3)c2)cn1 (stereo not drawn) [Compound 17, 5-[1-[3-bromo-5-[1-(3,5-difluorophenyl)-1,2,2,2-tetrafluoro-ethyl]-1-methyl-pyrrol-2-yl]pyrazol-4-yl]-2-chloro-N-(1-cyanocyclopropyl)benzamide]
not listed: [2] | [3]
≥ 80%: all other assays above

CCN(C(=O)c1cc(-c2cnn(-c3c(Br)cc(C(F)(C(F)(F)F)C(F)(F)F)n3C)c2)ccc1Cl)C1CC1 [Compound 22, 5-[1-[3-bromo-1-methyl-5-[1,2,2,2-tetrafluoro-1-(trifluoromethyl)ethyl]pyrrol-2-yl]pyrazol-4-yl]-2-chloro-N-cyclopropyl-N-ethyl-benzamide]
not listed: [7]
≥ 80%: all other assays above

Cn1c(C(F)(C(F)(F)F)C(F)(F)F)cc(C(N)=S)c1-n1cc(-c2ccc(Cl)c(C(=O)NC3(C#N)CC3)c2)cn1 [Compound 23, 5-[1-[3-carbamothioyl-1-methyl-5-[1,2,2,2-tetrafluoro-1-(trifluoromethyl)ethyl]pyrrol-2-yl]pyrazol-4-yl]-2-chloro-N-(1-cyanocyclopropyl)benzamide]
not listed: [7]
≥ 80%: all other assays above

Cn1c(C(F)(c2cc(Cl)cc(Cl)c2)C(F)(F)F)cc(Cl)c1-n1cc(-c2ccc(Cl)c(C(=O)NC3(C#N)CC3)c2)cn1 (stereo not drawn) [Compound 30, 2-chloro-5-[1-[3-chloro-5-[1-(3,5-dichlorophenyl)-1,2,2,2-tetrafluoro-ethyl]-1-methyl-pyrrol-2-yl]pyrazol-4-yl]-N-(1-cyanocyclopropyl)benzamide]
not listed: [3] | [6]
≥ 80%: all other assays above

Cn1c(C(F)(F)C(F)(F)F)cc(Cl)c1-n1cc(-c2ccc(Cl)c(C(=O)NC3(C#N)CC3)c2)cn1 [Compound 33]
not listed: [7]
≥ 80%: all other assays above

Cn1c(C(F)(C(F)(F)F)C(F)(F)F)cc(I)c1-n1cc(-c2ccc(Cl)c(C(=O)NC3(C#N)CC3)c2)cn1 [Compound 34, 2-chloro-N-(1-cyanocyclopropyl)-5-[1-[3-iodo-1-methyl-5-[1,2,2,2-tetrafluoro-1-(trifluoromethyl)ethyl]pyrrol-2-yl]pyrazol-4-yl]benzamide]
not listed: [3]
≥ 80%: all other assays above
